What all share (format): functional
Set-up in all cases: concentration or dose not given beside the values

Experiment [1] concerns Plasmodium berghei. Description: MMV: P. berghei-infected blood was withdrawn from mice by cardiac pucture before being immediately added to ookinete culture medium containing test compounds. 26 hr later, GFP-positive ookinetes were identified and counted by automated microscopy. All compounds were tested in 4 independent experiments and data presented here is the mean.
The subject of experiment [2] is Plasmodium falciparum. Briefly: MMV: P. falciparum NF54 functionally mature Stage V gametocytes were incubated for 24 hr in the presence of the test compounds. Gamete formation was then triggered by addition of 2uM xantheurenic acid and temperature decrease to ~20C. Male gamete exflagellation was recorded and analysed by automated microscopy after 20 min. All compounds were tested in 4 independent experiments and data presented here is the mean.

Experiment [3] has as its system Plasmodium falciparum. Briefly: MMV: P. falciparum NF54 functionally mature Stage V gametocytes were incubated for 24 hr in the presence of the test compounds. Gamete formation was then triggered by addition of 2uM xantheurenic acid and temperature decrease to ~20C. Female gamete formation was recorded 24 hr later by automated microscopy detection of surface labelling of female gametes with a Cy3-conjugated antibody reactive to Pfs25. All compounds were tested in 4 independent experiments and data presented here is the mean. Particulars: NF54, 24 h.

Usually inhibition stands for the drop in the measured response relative to a control, in per cent.

On to `COc1ccc(Nc2cc(C)nc(NCc3ccccc3)n2)cc1`, for which the inhibition in experiment [1] was -20.03%; in experiment [2], -9.51%; in experiment [3] it was -30.5%.
Regarding `Cc1ccc(CN2CCC(C(=O)Nc3ccc(-c4cc5ccccc5[nH]4)cc3)CC2)o1`, the inhibition in experiment [1] was -4.815%; in experiment [2], 7.05%; in experiment [3] it was -19.7%.
As to `Oc1ccc(-c2nc(-c3ccc4oc5ccc(-c6[nH]c(-c7ccc(O)cc7)nc6-c6ccccc6)cc5c4c3)c(-c3ccccc3)[nH]2)cc1`, the inhibition in experiment [1] is -6.694%; in experiment [2], 3.81%; in experiment [3], -4.38%.
For `Cc1cc(Nc2ccc(C)c(Cl)c2)n2nc(C(F)(F)F)nc2n1` the same measures were -5.541%, 17.1% and -44.8%.
For the compound `CCCCc1ccc(NS(=O)(=O)c2cc3c4c(c2)CCN4C(=O)CC3)cc1`, the inhibition is -6.551% in experiment [1], 15.5% in experiment [2] and -27.1% in experiment [3].
The corresponding values for `CC(C)(C)c1ccc(C(=O)Nc2nc3ccccc3s2)cc1` are 18.69%, 26.1% and -4.04%.
For `COc1ccc(C(=O)C2CC2c2ccc(Cl)cc2)cc1` (centres undefined), the inhibition in experiment [1] was -7.167%; in experiment [2], 19.4%; in experiment [3], -10.6%.
On to `O=C(Nc1nc(-c2ccccn2)cs1)c1ccccc1Br`, for which the figures for the inhibition in experiment [1], in experiment [2] and in experiment [3] were 2.456%, -29.6% and -22.2%, respectively.
For `Clc1ccc2[nH]c3c(NCCCN4CCOCC4)ncnc3c2c1`, the inhibition in experiment [1] was -16.54%; in experiment [2], 21.6%; in experiment [3], -15.9%.
On to `Br.CCn1c2c(c(=N)c3c1CCC3)CCCC2`, for which the inhibition is -17.86% in experiment [1], -42.4% in experiment [2] and -26.2% in experiment [3].
For `COc1ccc(C2N(C)c3ccccc3N2C)cc1` the same measures were -4.492%, 10.4% and 24.3%.
The corresponding values for `Oc1ccccc1CN1CCC2(CCCN(Cc3ccccc3F)C2)C1` (centres undefined) are -6.641%, 22.9% and -21.4%.
The corresponding values for `O=C(CCl)NCCOc1ccc(Cl)cc1Cl` are -18.34%, 13.7% and -30.6%.
Take `CCC(=O)Nc1nnc(Cc2ccc(OC)c(OC)c2)s1`: the inhibition in experiment [1] was -4.332%; in experiment [2], 19.9%; in experiment [3], -4.58%.
As to `COc1ccc(C2NCCc3c2[nH]c2ccccc32)cc1CN1CCN(c2ccc(F)cc2)CC1.Cl` (centres undefined), the inhibition in experiment [1] was -1.071%; in experiment [2] it was 5.86%; in experiment [3], -18.1%.
With `Nc1nc(Nc2cccc(F)c2)nc2ccccc12`, the inhibition in experiment [1] is 16.83%; in experiment [2], -16.2%; in experiment [3] it was -41.8%.
With `CCOC(=O)c1c(NC(=O)c2ccccc2)sc2c(O)c(CN(CC)CC)ccc12`, the inhibition was -23.17% in experiment [1], 51% in experiment [2] and -19.6% in experiment [3].
The corresponding values for `CCCCc1c(CCC)c(=N)c2ccccc2n1C.I` are -7.021%, -57% and -25.6%.
In the case of `COc1ccc(-c2cn3c(C(=O)Nc4ccccc4Cl)c(-c4ccccc4)c4c3n2CCCC4)cc1`, the figures for the inhibition in experiment [1], in experiment [2] and in experiment [3] were 15.55%, -67.8% and -34.6%, respectively.
The corresponding values for `CCOC(=O)C1=C(c2ccccc2)N=c2sc(=Cc3cc(C)n(-c4ccc(F)cc4)c3C)c(=O)n2C1c1cccc(OC)c1OC` (centres undefined) are -41.23%, 17.4% and -0.952%.
For the compound `COc1cccc(C(=O)Nc2ccc(-c3nc4ccccc4[nH]3)cc2)c1`, the inhibition was found to be 18.46% in experiment [1], 24% in experiment [2] and 1.53% in experiment [3].
As for `O=C(O)C(=O)O.Oc1ccc(Br)cc1CN1CCN(Cc2cccc(F)c2)CC1`, the inhibition in experiment [1] is -11.78%; in experiment [2] it was 27.2%; in experiment [3] it was -17.6%.
For `COc1ccc(N2CCN(C(CNC(=O)C3CCCCC3)c3ccc4c(c3)OCO4)CC2)cc1` (centres undefined) the same measures were -5.593%, 29.7% and -22.9%.
Take `CNCCCNc1ccnc2cc(Cl)ccc12`: the inhibition in experiment [1] was 0.238%; in experiment [2], -17.2%; in experiment [3] it was -3.53%.
As for `COc1ccccc1CNC(=O)CCn1c(=O)[nH]c2ccccc2c1=O`, the results for the inhibition in experiment [1], in experiment [2] and in experiment [3] were -17.49%, 13.3% and -26.4%, respectively.
As to `COc1ccc(-c2nonc2NC(=O)c2cccc(Cl)c2)cc1OC`, the inhibition was -15.75% in experiment [1], 18.1% in experiment [2] and 12% in experiment [3].
As for `COc1ccc2c(c1)OC(O)(C(F)(F)C(F)(F)F)CC2=O` (centres undefined), the inhibition was -0.6954% in experiment [1], -139% in experiment [2] and -4.89% in experiment [3].
For the compound `COc1ccc2nc(C)cc(Nc3ccc(Cl)cc3)c2c1`, the inhibition in experiment [1] is 4.092%; in experiment [2], -17.3%; in experiment [3], -15.3%.
Turning to `COc1cccc(C(=O)NC(c2ccc(C)cc2)c2cc(Cl)c3cccnc3c2O)c1` (centres undefined), the inhibition in experiment [1] is -20.64%; in experiment [2] it was 19.5%; in experiment [3], 0.843%.
In the case of `O=C(Nc1ccc(N2CCCCC2)c(Cl)c1)c1ccc(Br)o1`, the inhibition in experiment [1] was 4.656%; in experiment [2], 41.2%; in experiment [3], -35.3%.
The corresponding values for `Cc1ccc(Cn2c(N3CCC(C(=O)NCc4cccs4)CC3)nc3ccccc32)cc1` are 6.449%, 12.1% and -22.4%.
On to `Nc1ccc(-c2nc3cc(Oc4ccc(Oc5ccc6[nH]c(-c7ccc(N)cc7)nc6c5)cc4)ccc3[nH]2)cc1`, for which the results for the inhibition in experiment [1], in experiment [2] and in experiment [3] were 13.14%, 3.94% and -54.1%, respectively.
For `O=c1nc(C=Cc2ccc(Cl)cc2)oc2ccccc12`, the inhibition in experiment [1] is 7%; in experiment [2], 41%; in experiment [3] it was -1.1%.
Turning to `COc1cc2cc(C(=O)Nc3ccccc3)c(N)nc2cc1OC`, the results for the inhibition in experiment [1], in experiment [2] and in experiment [3] were 8.567%, 22% and -10%, respectively.
Regarding `Cc1cc(NC(=O)c2cccc(C(F)(F)F)c2)n(-c2nc(-c3ccc4c(c3)OCO4)cs2)n1`, the results for the inhibition in experiment [1], in experiment [2] and in experiment [3] were -1.403%, 11.3% and 17.1%, respectively.
Turning to `O=c1c2c([nH]c3ccccc13)CCCC2`, the inhibition was 6.827% in experiment [1], 51% in experiment [2] and -24.5% in experiment [3].
In the case of `Cc1ccccc1OCCSc1nc2ccc(NC(=O)c3ccccc3)cc2s1`, the inhibition in experiment [1] is -15.11%; in experiment [2] it was 5.46%; in experiment [3], -13.8%.
Take `Cc1cc(N2CCCC2)nc(Nc2ccc(NC(=O)CCc3ccccc3)cc2)n1`: the values for the inhibition in experiment [1], in experiment [2] and in experiment [3] were -8.954%, -19.1% and -8.07%, respectively.
